PubChem BioAssay (NCI)
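1) Cells in 96-well plates. 2) Compound, 48 h, 5 concentrations. 3) Linear interpolation between surrounding doses. 4) Unreached endpoint = highest concentration. GI50 = concentration required for 50% inhibition of growth. TGI: concentration producing complete growth inhibition.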

Key:
Experiment in all cases: NCI anticancer screen, dose series, 48 h
[1] = system: HT29 colon
[2] = system: K-562 leukemia
[3] = system: KM12 colon
[4] = system: NCI-H522 lung
[5] = system: OVCAR-3 ovarian
[6] = system: SK-OV-3 ovarian
[7] = system: SNB-75 CNS
[8] = system: TK-10 renal
[9] = system: U251 CNS
[10] = system: UACC-62 melanoma

Compound | TGI [1] | TGI [2] | TGI [3] | TGI [4] | TGI [5] | TGI [6] | TGI [7] | TGI [8] | TGI [9] | TGI [10] | GI50 [1] | GI50 [2] | GI50 [3] | GI50 [4] | GI50 [5] | GI50 [6] | GI50 [7] | GI50 [8] | GI50 [9] | GI50 [10]
O=CC(O)C(O)C(OC1OC(CO)C(O)C(O)C1O)C(O)CO (stereo not drawn) (tested in a mixture with another compound) | > 100 µM | 98.7 µM | 50.8 µM | > 100 µM | > 100 µM | > 100 µM | > 100 µM | > 100 µM | > 100 µM | > 100 µM |  |  |  |  |  |  |  |  |  | 
CC(C)C/C(=N\NC(=O)c1ccncc1)c1cc(Cl)ccc1O | > 100 µM | > 100 µM | 57.4 µM | 16 µM | 5.24 µM | 32.2 µM | > 100 µM | > 100 µM | > 72.1 µM | 8.08 µM | 0.441 µM | 0.516 µM | 0.389 µM | 0.312 µM | 0.204 µM | 0.852 µM | 11.6 µM | 0.348 µM | 0.303 µM | 0.451 µM
C1=C(c2ccccc2)C(OC2Oc3ccccc3C=C2c2ccccc2)Oc2ccccc21 (stereo not drawn) | > 100 µM | > 100 µM | > 100 µM | > 100 µM | > 100 µM | > 100 µM | > 100 µM | > 100 µM | 45.1 µM | > 100 µM |  |  |  |  |  |  |  |  |  | 
O=C(O)C1=C(C(=O)O)Oc2ccccc2O1 | > 100 µM | > 100 µM | > 100 µM | > 100 µM | > 100 µM | > 100 µM | > 100 µM | > 100 µM | > 100 µM | > 100 µM |  |  |  |  |  |  |  |  |  | 
COc1cccc2c1[C@H]1OC(=O)NC1CCCCC2 (stereo partly drawn) | > 100 µM | > 100 µM | > 100 µM | > 100 µM | > 100 µM | > 100 µM | > 100 µM | > 100 µM | > 100 µM | > 100 µM |  |  |  |  |  |  |  |  |  | 
CCN(CC)Cc1cc(Nc2cc(C(F)(F)F)c(C#N)c3nc4ccccc4n23)ccc1O | 12.2 µM | > 100 µM | 8.22 µM | 2.74 µM | 10.4 µM | 8.59 µM | 7.54 µM | 9.43 µM | 6.47 µM | 3.96 µM | 2.5 µM | 3.1 µM | 2.42 µM | 1.05 µM | 1.83 µM | 1.98 µM | 1.41 µM | 1.47 µM | 1.5 µM | 1.22 µM
N#Cc1cccc(C2C3=C(COC3=O)N(CCO)c3cc4c(cc32)CCC4)c1 (stereo not drawn) | > 18.8 µM | > 50 µM | > 50 µM | 1.67 µM |  | > 30.5 µM |  | > 50 µM | > 50 µM | > 50 µM | 0.16 µM | 0.0732 µM | 0.136 µM | 0.025 µM | 0.123 µM | 0.215 µM | 0.0393 µM | 0.436 µM | 0.196 µM | 0.028 µM
Oc1ccc(-c2[nH]c3ccccc3c2-c2nc3ccccc3o2)cc1 | 11.5 µM | 21.8 µM | 6.95 µM | 9.65 µM | 9.8 µM | 17.3 µM | 10.4 µM | 16.8 µM | 11.6 µM | 15 µM | 3.65 µM | 3.98 µM | 2.05 µM | 2.83 µM | 3.05 µM | 5.03 µM | 1.44 µM | 5.49 µM | 2.86 µM | 3.1 µM
COc1cc2c(cc1OC)C(SC)C(=O)N(Cc1cccc(OC)c1OC)CC2 (stereo not drawn) | 17.1 µM | 41.4 µM | 40.3 µM | 3.07 µM | 7.03 µM | > 100 µM | > 100 µM | > 100 µM | > 69.3 µM | 30.2 µM |  |  |  |  |  |  |  |  |  | 
Cc1ccc(NC2=CC(=O)C(=O)c3ccccc32)c(C)c1 | 7.08 µM | 29.4 µM | 13.1 µM | 5.87 µM | 4.47 µM | 27.9 µM | 3.49 µM | 12.2 µM | 11.9 µM | 3.72 µM | 2.51 µM | 4.03 µM | 2.82 µM | 1.52 µM | 1.49 µM | 13.8 µM | 1.57 µM | 0.596 µM | 3.07 µM | 1.78 µM
O=c1[nH]c(=O)n(C2CC(O)C(O)C(CO)O2)cc1F (stereo not drawn) | > 100 µM | > 100 µM | > 100 µM | > 100 µM | > 100 µM | > 100 µM | > 100 µM | > 100 µM | > 100 µM | > 100 µM |  |  |  |  |  |  |  |  |  | 
O=S(=O)(Cc1ccccc1)SCc1ccccc1 | 54.1 µM | 33.5 µM | > 100 µM | 25.2 µM | 58.5 µM | 97.3 µM | > 100 µM | 99.2 µM | 66.2 µM | 55.8 µM |  |  |  |  |  |  |  |  |  | 
Nc1nc(-c2ccccc2)cc(-c2cc(Cl)ccc2O)n1 | > 100 µM | > 100 µM | > 100 µM | 99.7 µM | 94.4 µM | 77.8 µM | 69 µM | > 100 µM | > 100 µM | > 100 µM |  |  |  |  |  |  |  |  |  | 
Nc1c(-c2nc3ccccc3s2)[n+]([O-])c2ccccc2[n+]1[O-] | > 100 µM | > 100 µM | > 100 µM | 45.8 µM | 60.6 µM | 88.9 µM | 76.5 µM | > 100 µM | > 100 µM | > 100 µM |  |  |  |  |  |  |  |  |  | 
O=C(O)Cn1ccc(=O)c2c([N+](=O)[O-])cccc21 | > 100 µM | > 100 µM | > 100 µM | > 100 µM | > 100 µM | > 100 µM | > 100 µM | > 100 µM | > 100 µM | > 100 µM |  |  |  |  |  |  |  |  |  | 
O=C(/C=C/c1ccc(Cl)cc1)c1ccc(Cl)s1 | > 100 µM | > 100 µM | > 100 µM | > 100 µM | > 100 µM | > 100 µM | > 100 µM | > 100 µM | > 100 µM | 93 µM |  |  |  |  |  |  |  |  |  | 
Cc1ccc(O)cc1Nc1ccnc2cc(-c3ccccn3)ccc12 | 7.81 µM | 2.52 µM | 6.57 µM | 4.6 µM | 6.36 µM | 6.3 µM | 3.43 µM | 4.23 µM | 6.65 µM | 7.34 µM | 3.9 µM | 0.0973 µM | 3.01 µM | 0.931 µM | 2.14 µM | 1.98 µM | 0.405 µM | 1.36 µM | 3.29 µM | 3.45 µM
